Bounds are passed on as bounds.

For experiment [1], the system named is imiquimod-induced psoriasis. As to the kind of experiment: In vivo pharmacodynamic study in imiquimod (IMQ)-induced psoriasis model in mice. On the set-up: species or system C57BL/6 mice. Particulars: for Clinical scores (Mean ± SEM, n = 8): 75 mg/kg. How it is done: 6- to 8-week old female C57BL/6 mice were selected, depilated on the backs, and sensitized two days later except for the sham operation group. On the day of sensitization, the mice were randomly divided into the following 6 groups (8 mice per group). Group I was a sham operation group; Group II was a vehicle control group and PBS was administered; Group III was a positive control group and 5 mg/kg methotrexate was administered; Groups IV, V and VI were ip treatment group, ig treatment group, and topical treatment group of the compound of Example 1, and 75 mg/kg of the compound of Example 1 was administered via intraperitoneal injection, intragastric administration, and dorsal application, respectively. Administration was started on the day of sensitization, once daily for Group III and twice daily for Groups IV to VI. On the day of sensitization, the mice in Groups II to VI were given 60 to 80 mg of imiquimod cream (5%) on the dorsal skin for 4 consecutive days. (Please refer to Bouchaud, G., et al., Epidermal IL-15Ralpha acts as an endogenous antagonist of psoriasiform inflammation in mouse and man. J. Exp. Med., 2013. 210(10): p. 2105-17.)
The mice were weighed daily from the day of sensitization, and the skin scales, induration, and erythema were observed and scored according to a four-grade scoring method: 0 point, no disease; 1 point, mild; 2 points, moderate; 3 points, severe; and 4 points, very severe. (Please refer to Qin, S., et al., Endogenous n-3 polyunsaturated fatty acids protect against imiquimod-induced psoriasis-like inflammation via the IL-17/IL-23 axis. Mol Med Rep, 2014. 9(6): p. 2097-104.)

For a further experiment, the target named is T1, RORγ (Homo sapiens, UniProt P51449).
T1 sequence (P51449 97-518): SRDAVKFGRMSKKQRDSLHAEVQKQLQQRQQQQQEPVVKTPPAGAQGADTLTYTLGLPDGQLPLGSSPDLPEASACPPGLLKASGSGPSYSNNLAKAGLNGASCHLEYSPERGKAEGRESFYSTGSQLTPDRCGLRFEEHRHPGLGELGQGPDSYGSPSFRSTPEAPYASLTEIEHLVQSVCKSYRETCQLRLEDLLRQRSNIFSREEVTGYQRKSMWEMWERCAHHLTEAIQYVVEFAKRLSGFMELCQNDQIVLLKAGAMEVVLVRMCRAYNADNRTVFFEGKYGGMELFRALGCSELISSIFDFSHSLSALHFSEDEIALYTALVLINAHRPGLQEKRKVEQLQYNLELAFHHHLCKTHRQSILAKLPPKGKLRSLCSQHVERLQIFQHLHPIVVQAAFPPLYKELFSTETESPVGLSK
As to the kind of experiment: In vitro test for inhibitory activity on RORγ: luciferase reporter cells expressing chimeric Gal4-RORγ receptor. Format: cell-based. The note with it: Gal4 hybrid receptor luciferase reporter, HEK293, 24 hours incubation. The method, then: Reporter cells: Reporter cells expressing a chimeric RORγ receptor were used in this experiment. The chimeric RORγ receptor was a RORγ receptor formed by replacing the N-terminal DNA-binding domain of the natural RORγ protein with the DNA-binding domain of the yeast Gal4 protein. The luciferase reporter gene was located at the downstream of the Gal4 activating sequence (UAS).
Step 1: Reporter cells were prepared into a cell suspension using INDIGO's Cell Recovery Medium (CRM, containing 5% fetal bovine serum treated by activated carbon). The cell suspension was dispensed into a white 96-well culture plate in a volume of 100 μl/well.
Step 2: Eight concentration gradients were set for each test compound, and the test was conducted twice at each concentration. Prior to the experiment, the main stock solution of the test compound was serially diluted with DMSO, so as to formulate solutions with “1000×-concentration” relative to each of the final test concentrations. Subsequently, the compound was further diluted with the cell recovery medium (CRM, containing 5% fetal bovine serum treated by activated carbon), so as to formulate test working solutions with “2×-concentration”. As per a volume of 100 μl/well, the test working solutions were respectively added to the test wells in which the reporter cells were added in advance, so as to obtain the desired final test concentrations. The residual concentrations of DMSO in all test wells were 0.1%. The test plate was incubated in a cell incubator for 24 hours. Conditions of the incubator were set as follows: temperature: 37° C., 5% CO2, humidity: ˜85%.
Step 3: After 24 hours of incubation, the liquid in the culture plate was discarded, 100 μl of luciferase detection reagent was added to each test well, and then, the fluorescence intensity (Relative Luminescence Units, RLUs) in each well was read.
In this test, the reference compound ursolic acid was used as an internal standard of a positive compound to verify the inhibitory effect of the test compound on RORγ in reporter cells of a specific batch. The tests for the reference compound and the test compound were performed simultaneously, and the reference compound and the test compound were thus exposed to the same test reagent and environment. The reference compound group containing 0.1% DMSO as solvent was used as an internal standard of a positive compound, so as to determine the effect of the solvent DMSO on the test results and calculate the percentage reduction in RORγ activity.
The test data was managed and archived by Microsoft Excel, and mean±standard deviation (SD) of RLU, fold of reduction, inhibition rate, coefficient of variation (% CV) and Z factor were calculated. Coefficient of variation (% CV): 100×(SD/Ave. RLU); Fold of reduction for inverse agonist: [Ave. […]
(In a reporter assay the amount or activity of a reporter protein is the signal.)

The term EC50 denotes the concentration at which the effect is half-maximal. For `CCS(=O)(=O)c1ccc(CNC(=O)c2cc3c(s2)C(C(C)C)N(C[C@H]2CC[C@H](C(F)(F)F)CC2)C3)nc1` (single isomer, unassigned) [Example 1], the “effect on reducing the clinical scores compared with 5 mg/kg of methotrexate” value in experiment [1] (75 mg/kg by intraperitoneal injection, intragastric administration and dorsal application, FIG. 5) is on record as “equivalent”. Moreover, the “effect on the clinical scores (skin scales, induration)” value in experiment [1] (75 mg/kg by intraperitoneal injection, intragastric administration and dorsal application, p<0.01, FIG. 5) was “reduce the clinical scores significantly”. Further, the “Clinical scores (Mean ± SEM, n = 8)” value in experiment [1] (ig, Day 1) stood at 0 ± 0; in experiment [1] (ig, Day 2), 0.31 ± 0.13; in experiment [1] (ig, Day 3), 0.50 ± 0.19; in experiment [1] (ig, Day 4), 1.29 ± 0.21; in experiment [1] (ig, Day 5) it was 1.64 ± 0.18; in experiment [1] (ip, Day 1) it was 0 ± 0. Besides, the “Clinical scores (Mean ± SEM, n = 8)” value is listed as 0.25 ± 0.13 in experiment [1] (ip, Day 2); 0.50 ± 0.16 in experiment [1] (ip, Day 3); 1.25 ± 0.19 in experiment [1] (ip, Day 4); 1.81 ± 0.25 in experiment [1] (ip, Day 5); 0 ± 0 in experiment [1] (topical, Day 1); 0.25 ± 0.13 in experiment [1] (topical, Day 2). Also, the “Clinical scores (Mean ± SEM, n = 8)” value in experiment [1] (topical, Day 3) is reported as 0.44 ± 0.15; in experiment [1] (topical, Day 4), 0.94 ± 0.24; in experiment [1] (topical, Day 5) it was 1.43 ± 0.20. The EC50 on RORγ (Specific value of the concentration required for 50% inhibition (EC50) of RORγ) was 15.8 nM; on RORγ (Value of the concentration required for 50% Inhibition (EC50) of RORγ), less than 100 nM.

For the origin of these results see US11466024B2, “Bicylic compound acting as an inhibitor” (CHIA TAI TIANQING PHARMACEUTICAL GROUP CO., LTD., priority 2017, dated 2022).
